Results published in patent publication US9914732B2, “Diazabicyclo[4.3.1]decane derivatives for treatment of psychiatric disorders” (Max-Planck-Gesellschaft zur Forderung der Wissenschaften …, priority 2014, dated 2018).

Assays:
[1] = biological target: T1, FKBP52 (Homo sapiens, UniProt Q02790); experiment: Fluorescence polarization (FP) assay, binding to the FK506-binding domain of FKBP52; conditions: FK506-binding domain of FKBP52 (FKBP52FK1), competition with fluorescent ligand 2b
T1 sequence (Q02790 50-138 limits assumed): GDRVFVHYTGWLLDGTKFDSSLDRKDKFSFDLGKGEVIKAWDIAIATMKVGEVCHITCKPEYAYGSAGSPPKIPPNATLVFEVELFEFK
In short: (§1)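 Competitive FP with fluorescent ligand 2b at 20 nM (2× concentration) and FK1 domain at 280 nM (FKBP51) or 400 nM (FKBP52) in 20 mM HEPES pH 8, 0.01% Triton-X100. Anisotropy read after 30 min at room temperature (ex 485, em 535 nm), in duplicate; IC50 by four-parameter fit, Ki via Wang competitive equation.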

[2] = biological target: T2, FKBP51 (Homo sapiens, UniProt Q13451); experiment: Fluorescence polarization (FP) assay, binding to the FK506-binding domain of FKBP51; conditions: FK506-binding domain of FKBP51 (FKBP51FK1), competition with fluorescent ligand 2b
T2 sequence (Q13451 42-130 limits assumed): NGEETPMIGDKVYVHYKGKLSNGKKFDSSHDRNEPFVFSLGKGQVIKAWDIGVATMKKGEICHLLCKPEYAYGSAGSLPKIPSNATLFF
In short: as §1

| SMILES | Ki [1] | Ki [2] |
| --- | --- | --- |
| C=C[C@@H]1CN(Cc2ccco2)C(=O)[C@@H]2CCC[C@H]1N2S(=O)(=O)c1cc(Cl)cc(Cl)c1 [Compound J17, (1S,5R,6R)-10-((3,5-dichlorophenyl)sulfonyl)-3-(furan-2-ylmethyl)-5-vinyl-3,10-diazabicyclo[4.3.1]decan-2-one] | 1000 to 5000 nM | 1000 to 5000 nM |
| C=C[C@@H]1CN(Cc2ccccn2)C(=O)[C@@H]2CCC[C@H]1N2S(=O)(=O)c1ccc2[nH]c(=O)sc2c1 [Compound K4, 6-(((1S,5R,6R)-2-oxo-3-(pyridin-2-ylmethyl)-5-vinyl-3,10-diazabicyclo[4.3.1]decan-10-yl)sulfonyl)benzo[d]thiazol-2(3H)-one] | ≤ 100 nM | ≤ 100 nM |
| C=C[C@@H]1CN(Cc2ccccn2)C(=O)[C@@H]2CCC[C@H]1N2S(=O)(=O)c1cccc(C#N)c1 [Compound K7, 3-(((1S,5R,6R)-2-oxo-3-(pyridin-2-ylmethyl)-5-vinyl-3,10-diazabicyclo[4.3.1]decan-10-yl)sulfonyl)benzonitrile] | 100 to 500 nM | 100 to 500 nM |
| C=C[C@@H]1CN(Cc2ccccn2)C(=O)[C@@H]2CCC[C@H]1N2S(=O)(=O)c1cc(Cl)c(O)c(Cl)c1 [Compound K8, (1S,5R,6R)-10-((3,5-dichloro-4-hydroxyphenyl)sulfonyl)-3-(pyridin-2-ylmethyl)-5-vinyl-3,10-diazabicyclo[4.3.1]decan-2-one] | 100 to 500 nM | 100 to 500 nM |
| C=C[C@@H]1CN(Cc2ccccn2)C(=O)[C@@H]2CCC[C@H]1N2S(=O)(=O)c1cc(Br)cc(C(N)=O)c1 [Compound K18, 3-bromo-5-(((1S,5R,6R)-2-oxo-3-(pyridin-2-ylmethyl)-5-vinyl-3,10-diazabicyclo[4.3.1]decan-10-yl)sulfonyl)benzamide] | 100 to 500 nM | 100 to 500 nM |
| C=C[C@@H]1CN(Cc2ccccn2)C(=O)[C@@H]2CCC[C@H]1N2S(=O)(=O)c1cc(Cl)cc(C(N)=O)c1 [Compound K19, 3-chloro-5-(((1S,5R,6R)-2-oxo-3-(pyridin-2-ylmethyl)-5-vinyl-3,10-diazabicyclo[4.3.1]decan-10-yl)sulfonyl)benzamide] | 100 to 500 nM | 100 to 500 nM |
| C=C[C@@H]1CN(Cc2ccccn2)C(=O)[C@@H]2CCC[C@H]1N2S(=O)(=O)c1cc(Cl)c(NC(C)=O)c(Cl)c1 [Compound K22, N-(2,6-dichloro-4-(((1S,5R,6R)-2-oxo-3-(pyridin-2-ylmethyl)-5-vinyl-3,10-diazabicyclo[4.3.1]decan-10-yl)sulfonyl)phenyl)acetamide] | ≤ 100 nM | ≤ 100 nM |
| C=C[C@@H]1CN(Cc2ccccn2)C(=O)[C@@H]2CCC[C@H]1N2S(=O)(=O)c1cccc(C(=O)OC)c1 [Compound K23, methyl 3-(((1S,5R,6R)-2-oxo-3-(pyridin-2-ylmethyl)-5-vinyl-3,10-diazabicyclo[4.3.1]decan-10-yl)sulfonyl)benzoate] | 500 to 1000 nM | 500 to 1000 nM |
| C=C[C@@H]1CN(Cc2ccccn2)C(=O)[C@@H]2CCC[C@H]1N2S(=O)(=O)c1cc(Cl)cc(C(=O)OC)c1 [Compound K25, methyl 3-chloro-5-(((1S,5R,6R)-2-oxo-3-(pyridin-2-ylmethyl)-5-vinyl-3,10-diazabicyclo[4.3.1]decan-10-yl)sulfonyl)benzoate] | ≤ 100 nM | ≤ 100 nM |
| C=C[C@@H]1CN(Cc2ccccn2)C(=O)[C@@H]2CCC[C@H]1N2S(=O)(=O)c1ccc(-c2ccccc2)nc1 [Compound K27, (1S,5R,6R)-10-((6-phenylpyridin-3-yl)sulfonyl)-3-(pyridin-2-ylmethyl)-5-vinyl-3,10-diazabicyclo[4.3.1]decan-2-one] | 100 to 500 nM | 100 to 500 nM |
| CN(C)C[C@H]1CN(Cc2ccccn2)C(=O)[C@@H]2CCC[C@H]1N2S(=O)(=O)c1cc(Cl)cc(Cl)c1 [Compound M2, (1S,5S,6R)-10-((3,5-dichlorophenyl)sulfonyl)-5-((dimethylamino)methyl)-3-(pyridin-2-ylmethyl)-3,10-diazabicyclo[4.3.1]decan-2-one] | ≤ 100 nM | ≤ 100 nM |
| O=C1[C@@H]2CCC[C@H]([C@@H](C(F)F)CN1Cc1ccccn1)N2S(=O)(=O)c1cc(Cl)cc(Cl)c1 [Compound M3, (1S,5S,6R)-10-((3,5-dichlorophenyl)sulfonyl)-5-(difluoromethyl)-3-(pyridin-2-ylmethyl)-3,10-diazabicyclo[4.3.1]decan-2-one] | ≤ 100 nM | ≤ 100 nM |
| O=C1[C@@H]2CCC[C@H]([C@@H](CF)CN1Cc1ccccn1)N2S(=O)(=O)c1cc(Cl)cc(Cl)c1 [Compound M4, (1S,5S,6R)-10-((3,5-dichlorophenyl)sulfonyl)-5-(fluoromethyl)-3-(pyridin-2-ylmethyl)-3,10-diazabicyclo[4.3.1]decan-2-one] | ≤ 100 nM | ≤ 100 nM |
| CCOC[C@H]1CN(Cc2ccccn2)C(=O)[C@@H]2CCC[C@H]1N2S(=O)(=O)c1cc(Cl)cc(Cl)c1 [Compound M6, (1S,5S,6R)-10-((3,5-dichlorophenyl)sulfonyl)-5-(ethoxymethyl)-3-(pyridin-2-ylmethyl)-3,10-diazabicyclo[4.3.1]decan-2-one] | ≤ 100 nM | ≤ 100 nM |
| C#CCN1C[C@H](COC)[C@H]2CCC[C@@H](C1=O)N2S(=O)(=O)c1cc(Br)cc(Br)c1 [Compound N3, (1S,5S,6R)-10-((3,5-dibromophenyl)sulfonyl)-5-(methoxymethyl)-3-(prop-2-yn-1-yl)-3,10-diazabicyclo[4.3.1]decan-2-one] | 100 to 500 nM | 100 to 500 nM |
| C#CCN1C[C@H](COC)[C@H]2CCC[C@@H](C1=O)N2S(=O)(=O)c1cccc(C(N)=O)c1 [Compound N4, 3-(((1S,5S,6R)-5-(methoxymethyl)-2-oxo-3-(prop-2-yn-1-yl)-3,10-diazabicyclo[4.3.1]decan-10-yl)sulfonyl)benzamide] | 100 to 500 nM | 100 to 500 nM |
| C#CCN1C[C@H](COC)[C@H]2CCC[C@@H](C1=O)N2S(=O)(=O)c1cc(Br)cc(C(N)=O)c1 [Compound N5, 3-bromo-5-(((1S,5S,6R)-5-(methoxymethyl)-2-oxo-3-(prop-2-yn-1-yl)-3,10-diazabicyclo[4.3.1]decan-10-yl)sulfonyl)benzamide] | 100 to 500 nM | 100 to 500 nM |
| C#CCN1C[C@H](COC)[C@H]2CCC[C@@H](C1=O)N2S(=O)(=O)c1cc(Cl)cc(C(N)=O)c1 [Compound N6, 3-chloro-5-(((1S,5S,6R)-5-(methoxymethyl)-2-oxo-3-(prop-2-yn-1-yl)-3,10-diazabicyclo[4.3.1]decan-10-yl)sulfonyl)benzamide] | 100 to 500 nM | 100 to 500 nM |
| C#CCN1C[C@H](COC)[C@H]2CCC[C@@H](C1=O)N2S(=O)(=O)c1ccc(NC(C)=O)c(Br)c1 [Compound N7, N-(2-bromo-4-(((1S,5S,6R)-5-(methoxymethyl)-2-oxo-3-(prop-2-yn-1-yl)-3,10-diazabicyclo[4.3.1]decan-10-yl)sulfonyl)phenyl)acetamide] | 100 to 500 nM | 100 to 500 nM |
| C#CCN1C[C@H](COC)[C@H]2CCC[C@@H](C1=O)N2S(=O)(=O)c1ccc(NC(C)=O)c(Cl)c1 [Compound N8, N-(2-chloro-4-(((1S,5S,6R)-5-(methoxymethyl)-2-oxo-3-(prop-2-yn-1-yl)-3,10-diazabicyclo[4.3.1]decan-10-yl)sulfonyl)phenyl)acetamide] | 100 to 500 nM | 100 to 500 nM |
| C#CCN1C[C@H](COC)[C@H]2CCC[C@@H](C1=O)N2S(=O)(=O)c1cc(Cl)c(NC(C)=O)c(Cl)c1 [Compound N9, N-(2,6-dichloro-4-(((1S,5S,6R)-5-(methoxymethyl)-2-oxo-3-(prop-2-yn-1-yl)-3,10-diazabicyclo[4.3.1]decan-10-yl)sulfonyl)phenyl)acetamide] | 100 to 500 nM | 100 to 500 nM |
| C#CCN1C[C@H](COC)[C@H]2CCC[C@@H](C1=O)N2S(=O)(=O)c1cccc(C(=O)OC)c1 [Compound N10, methyl 3-(((1S,5S,6R)-5-(methoxymethyl)-2-oxo-3-(prop-2-yn-1-yl)-3,10-diazabicyclo[4.3.1]decan-10-yl)sulfonyl)benzoate] | 100 to 500 nM | 100 to 500 nM |
| C#CCN1C[C@H](COC)[C@H]2CCC[C@@H](C1=O)N2S(=O)(=O)c1cc(Br)cc(C(=O)OC)c1 [Compound N11, methyl 3-bromo-5-(((1S,5S,6R)-5-(methoxymethyl)-2-oxo-3-(prop-2-yn-1-yl)-3,10-diazabicyclo[4.3.1]decan-10-yl)sulfonyl)benzoate] | 100 to 500 nM | 100 to 500 nM |
| C#CCN1C[C@H](COC)[C@H]2CCC[C@@H](C1=O)N2S(=O)(=O)c1cc(Cl)cc(C(=O)OC)c1 [Compound N12, methyl 3-chloro-5-(((1S,5S,6R)-5-(methoxymethyl)-2-oxo-3-(prop-2-yn-1-yl)-3,10-diazabicyclo[4.3.1]decan-10-yl)sulfonyl)benzoate] | 100 to 500 nM | 100 to 500 nM |
| C#CCN1C[C@H](COC)[C@H]2CCC[C@@H](C1=O)N2S(=O)(=O)c1cccnc1 [Compound N13, (1S,5S,6R)-5-(methoxymethyl)-3-(prop-2-yn-1-yl)-10-(pyridin-3-ylsulfonyl)-3, 10-diazabicyclo[4.3.1]decan-2-one] | 500 to 1000 nM | 500 to 1000 nM |
| C#CCN1C[C@H](COC)[C@H]2CCC[C@@H](C1=O)N2S(=O)(=O)c1ccc(-c2ccccc2)nc1 [Compound N14, (1S,5S,6R)-5-(methoxymethyl)-10-((6-phenylpyridin-3-yl)sulfonyl)-3-(prop-2-yn-1-yl)-3,10-diazabicyclo[4.3.1]decan-2-one] | 100 to 500 nM | 100 to 500 nM |
